Results published in US8815841B2, “1,4-Oxazepines as BACE1 and/or BACE2 inhibitors” (Hoffmann-La Roche Inc., priority 2011, dated 2014).
pIC50: −log10 of the molar value. Structures can show the parent of a compound that is named as a salt.

How the values were obtained:
[1] = system: Aβ40 in Human HEK293 cells stably transfected with human APP wt gene (APP695); experiment: Cellular Aβ-lowering assay; assay type: cell-based; settings: HEK293 cells expressing human APP695, Aβ40 in culture supernatant by ELISA after 18-20 hrs; read-out: Cellular assay Abeta40 IC50
Protocol: Cellular Aβ-lowering Assay:
Human HEK293 cells which are stably transfected with a vector expressing a cDNA of the human APP wt gene (APP695) were used to assess the potency of the compounds in a cellular assay. The cells were seeded in 96-well microtiter plates in cell culture medium (Iscove, plus 10% (v/v) fetal bovine serum, glutamine, penicillin/streptomycin) to about 80% confluence and the compounds were added at a 10× concentration in 1/10 volume of medium without FCS containing 8% DMSO (final concentration of DMSO was kept at 0.8% v/v). After 18-20 hrs incubation at 37° C. and 5% CO2 in a humidified incubator the culture supernatant was harvested for the determination of Aβ40 concentrations. 96 well ELISA plates (e.g., Nunc MaxiSorb) were coated with monoclonal antibody which specifically recognize the C-terminal end of Aβ40 (Brockhaus et al., NeuroReport 9, 1481-1486; 1998). After blocking of non-specific binding sites with e.g. 1% BSA and washing, the culture supernatants were added in suitable dilutions together with a horseradish peroxidase-coupled Aβ detection antibody (e.g., antibody 4G8, Senetek, Maryland Heights, Mo.) and incubated for 5 to 7 hrs. Subsequently the wells of the microtiter plate were washed extensively with Tris-buffered saline containing 0.05% Tween 20 and the assay was developed with tetramethylbenzidine/H2O2 in citric acid buffer. After stopping the reaction with one volume 1 NH2SO4 the reaction was measured in an ELISA reader at 450 nm wavelength. The concentrations of Aβ in the culture supernatants were calculated from a standard curve obtained with known amounts of pure Aβ peptide.

[2] = molecular target: T1, endogenous cellular BACE2 (human TMEM27 cleavage) in the Ins 1e rat cell line (Rattus norvegicus, UniProt Q6IE75); experiment: Assay for BACE inhibition by measuring cellular TMEM27 cleavage; assay type: cell-based; settings: INS-TMEM27 cells, shed TMEM27 in culture medium by ELISA
T1 construct: endogenous cellular BACE2 in the Ins 1e rat cell line; endogenous in cells; host or cells: INS-TMEM27 (INS1e-derived rat cell line with doxycycline-inducible full-length human TMEM27)
T1 sequence (Q6IE75 63-514): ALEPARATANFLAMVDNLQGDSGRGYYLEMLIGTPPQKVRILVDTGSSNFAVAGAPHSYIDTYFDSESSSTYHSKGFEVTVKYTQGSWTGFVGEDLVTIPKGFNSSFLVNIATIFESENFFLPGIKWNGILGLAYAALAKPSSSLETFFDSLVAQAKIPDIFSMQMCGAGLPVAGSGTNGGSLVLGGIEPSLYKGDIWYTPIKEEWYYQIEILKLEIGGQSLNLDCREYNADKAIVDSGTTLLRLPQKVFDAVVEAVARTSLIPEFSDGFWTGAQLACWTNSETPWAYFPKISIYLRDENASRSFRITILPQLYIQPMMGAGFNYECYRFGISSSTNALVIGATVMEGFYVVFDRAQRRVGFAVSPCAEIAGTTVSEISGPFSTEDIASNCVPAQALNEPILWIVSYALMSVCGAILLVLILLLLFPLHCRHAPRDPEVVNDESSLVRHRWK
From the text: Assay for BACE Inhibition by Measuring Cellular TMEM27 Cleavage:
The assay uses the principle of inhibition of human TMEM27 cleavage by endogenous cellular BACE2 in the Ins 1e rat cell line and shedding from the cell surface into the culture medium, followed by detection in an ELISA assay. Inhibition of BACE2 prevents the cleavage and shedding in a dose-dependent manner.
The stable cell line “INS-TMEM27” represents an INSle-derived cell line with inducible expression (using the TetOn system) of full-length hTMEM27 in a doxycycline-dependent manner. The cells are cultured throughout the experiment in RPMI1640+Glutamax (Invitrogen) Penicillin/Streptomycin, 10% Fetal bovine serum, […], […], 100 micrograms/ml G418 and 100 microgram/ml hygromycin and are grown inadherent culture at 37° C. in a standard CO2 cell culture incubator.
INS-TMEM27 cells are seeded in 96-well plates. After 2 days in culture, BACE2 inhibitor is added in a range of concentrations as required by the assay and after a further two hours, doxycycline is added to a final concentration of 500 ng/ml. The cells are incubated for a further 46 hours and the supernatant harvested for detection of shed TMEM27.
An ELISA assay (using a pair of mouse anti-human-TMEM27 antibodies, raised against the extracellular domain of TMEM27) is used for detection of TMEM27 in the culture medium. An EC50 for BACE2 inhibition is calculated using the ELISA readout for each inhibitor concentration with standard curve-fitting software such as XLFit for the Excel spreadsheet program.

Structure (SMILES) | pIC50 [2] | pIC50 [1]
C[C@]1(c2cc(NC(=O)c3ncc(C(N)=O)cc3F)ccc2F)N=C(N)COCC1(F)F [Example 1, (R)—N2-(3-(3-Amino-6,6-difluoro-5-methyl-2,5,6,7-tetrahydro-1,4-oxazepin-5-yl)-4-fluorophenyl)-3-fluoropyridine-2,5-dicarboxamide formate] | 4.84 | 6.46
C[C@]1(c2cc(NC(=O)c3ccc(-c4nccs4)cn3)ccc2F)N=C(N)COCC1(F)F [Example 3, (R)—N-(3-(3-Amino-6,6-difluoro-5-methyl-2,5,6,7-tetrahydro-1,4-oxazepin-5-yl)-4-fluorophenyl)-5-(thiazol-2-yl)picolinamide formate] | 5.24 | 8.00
CSc1cnc(C(=O)Nc2ccc(F)c([C@@]3(C)N=C(N)COCC3(F)F)c2)cn1 [Example 5, (R)—N-(3-(3-Amino-6,6-difluoro-5-methyl-2,5,6,7-tetrahydro-1,4-oxazepin-5-yl)-4-fluorophenyl)-5-(methylthio)pyrazine-2-carboxamide formate] | 6.99 | 8.00
C[C@]1(c2cc(NC(=O)c3ccc(C#CC4CC4)cn3)ccc2F)N=C(N)COCC1(F)F [Example 6, (R)—N-(3-(3-Amino-6,6-difluoro-5-methyl-2,5,6,7-tetrahydro-1,4-oxazepin-5-yl)-4-fluorophenyl)-5-(cyclopropylethynyl)picolinamide formate] | 6.51 | 7.70
COCC#Cc1ccc(C(=O)Nc2ccc(F)c([C@@]3(C)N=C(N)COCC3(F)F)c2)nc1 [Example 8, (R)—N-(3-(3-Amino-6,6-difluoro-5-methyl-2,5,6,7-tetrahydro-1,4-oxazepin-5-yl)-4-fluorophenyl)-5-(3-methoxyprop-1-ynyl)picolinamide formate] | 6.08 | 7.15

More lines, main results first:

pIC50 [2] | Structure (SMILES) | pIC50 [1]
6.18 | CC[C@]1(c2cc(NC(=O)c3ncoc3C3CC3)ccc2F)N=C(N)COCC1(F)F [Example 4, (R)—N-(3-(3-Amino-5-ethyl-6,6-difluoro-2,5,6,7-tetrahydro-1,4-oxazepin-5-yl)-4-fluorophenyl)-5-cyclopropyloxazole-4-carboxamide] | 5.62
6.91 | C[C@]1(c2cc(NC(=O)c3ccc(C4CC4)cn3)ccc2F)N=C(N)COCC1(F)F [Example 7, (R)—N-(3-(3-Amino-6,6-difluoro-5-methyl-2,5,6,7-tetrahydro-1,4-oxazepin-5-yl)-4-fluorophenyl)-5-cyclopropylpicolinamide formate] | 7.60
7.65 | C[C@]1(c2cc(NCC3CC3)ccc2F)N=C(N)COC[C@@H]1F [Example 9, (5R,6R)-5-(5-(Cyclopropylmethylamino)-2-fluorophenyl)-6-fluoro-5-methyl-2,5,6,7-tetrahydro-1,4-oxazepin-3-amine] | 7.55
